Laboratory results published in patent US12233161B1, “Lipids and lipid nanoparticle formulations” (LONGUIDE BIOPHARMA CORPORATION, priority 2024, dated 2025).

How the values were obtained:
mice = experiment: In vivo delivery of FLuc-mRNA lipid nanoparticles in mice, in vivo imaging (IVIS)
Outline: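 Mice (n=3) received about 75 μL FLuc-mRNA LNP per mouse intramuscularly (rectus femoris), intravenously (tail vein), intraperitoneally or subcutaneously (back). After injection, D-luciferin (200 μL, 15 mg/mL) was given i.p. 10-15 min before IVIS imaging.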

[1] = Particle size and PDI of nucleic acid lipid nanoparticle preparations by dynamic light scattering; assay type: physicochemical
Description: The 7.5 μL nucleic acid lipid nanoparticle solution (containing approximately 0.04 mg/mL mRNA) was taken and added with 200 μL ultrapure water, mixed by gentle blowing using a pipette tip, and the particle size of the nanopreparation was detected by dynamic lightscattering (DLS) using a Malvern Dynamic Light Scattering Instrument (Malvern Instruments Ltd., ZEN3700, UK).
27.5 μL nucleic acid lipid nanoparticle solution (containing about 0.04 mg/mL mRNA) was taken and added with 200 μL ultrapure water. A pipette tip was used to gently blow the sample and mix well. The particle size of the nanopreparation was detected by Malvern Dynamic Light Scattering Instrument (Malvern Instruments Ltd., ZEN3700, UK). After the detection, the sample was recovered to an EP tube, and 600 μL of ultrapure water was added, gently blown with a pipette tip, and the potential of the nanopreparation was measured by a Malvern particle size meter.

[2] = DMG-PEG2000:DSPC:Chol:Lipid 1.40:11.15:38.95:48.50, N/P 30, IM, whole body scan
[3] = DMG-PEG2000:DSPC:Chol:Lipid 1.40:11.15:38.95:48.50, N/P 30, IV, body (whole body scan)
[4] = DMG-PEG2000:DSPC:Chol:Lipid 1.40:11.15:38.95:48.50, N/P 30, IV, liver
[5] = DMG-PEG2000:DSPC:Chol:Lipid 1.40:11.15:38.95:48.50, N/P 30, IV, lung
[6] = DMG-PEG2000:DSPC:Chol:Lipid 1.40:11.15:38.95:48.50, N/P 30, IV, spleen
[7] = DMG-PEG2000:DSPC:Chol:Lipid 1.50:11.50:52.00:35.00, N/P 18, IV, liver
[8] = DMG-PEG2000:DSPC:Chol:Lipid 1.50:11.50:52.00:35.00, N/P 18, IV, lung
[9] = DMG-PEG2000:DSPC:Chol:Lipid 1.50:11.50:52.00:35.00, N/P 18, IV, spleen
[10] = DMG-PEG2000:DSPC:Chol:Lipid 1.40:11.15:38.95:48.50, N/P 30, mRNA LNP
[11] = DMG-PEG2000:DSPC:Chol:Lipid 1.50:11.50:52.00:35.00, N/P 18, mRNA LNP
[12] = DMG-PEG2000:DSPC:Chol:Lipid 2.63:12.10:53.68:31.59, N/P 30, IV, liver
[13] = DMG-PEG2000:DSPC:Chol:Lipid 2.63:12.10:53.68:31.59, N/P 30, IV, lung
[14] = DMG-PEG2000:DSPC:Chol:Lipid 2.63:12.10:53.68:31.59, N/P 30, IV, spleen
[15] = DMG-PEG2000:DSPC:Chol:Lipid 2.63:12.10:53.68:31.59, N/P 30, mRNA LNP
[16] = DMG-PEG2000:DSPC:Chol:Lipid 1.40:11.15:38.95:48.50, N/P 18, mRNA LNP
[17] = IM, DMG-PEG2000:DSPC:Chol:compound 1.40:11.15:38.95:48.50, N/P 20, Fluc-mRNA
[18] = IV, organ not given, DMG-PEG2000:DSPC:Chol:compound 1.40:11.15:38.95:48.50, N/P 20, Fluc-mRNA
[19] = DMG-PEG2000:DSPC:Chol:compound 1.40:11.15:38.95:48.50, N/P 20
[20] = IM, DMG-PEG2000:DSPC:Chol:compound 1.40:11.15:38.95:48.50, N/P 30, Fluc-mRNA
[21] = IV, body, DMG-PEG2000:DSPC:Chol:compound 1.40:11.15:38.95:48.50, N/P 30, Fluc-mRNA
[22] = IV, liver, DMG-PEG2000:DSPC:Chol:compound 1.40:11.15:38.95:48.50, N/P 30
[23] = IV, liver, DMG-PEG2000:DSPC:Chol:compound 1.40:11.15:38.95:48.50, N/P 30, Fluc-mRNA
[24] = IV, lung, DMG-PEG2000:DSPC:Chol:compound 1.40:11.15:38.95:48.50, N/P 30
[25] = IV, lung, DMG-PEG2000:DSPC:Chol:compound 1.40:11.15:38.95:48.50, N/P 30, Fluc-mRNA
[26] = IV, spleen, DMG-PEG2000:DSPC:Chol:compound 1.40:11.15:38.95:48.50, N/P 30
[27] = IV, spleen, DMG-PEG2000:DSPC:Chol:compound 1.40:11.15:38.95:48.50, N/P 30, Fluc-mRNA
[28] = DMG-PEG2000:DSPC:Chol:compound 1.40:11.15:38.95:48.50, N/P 30

## CCCCCCCCCCCCNC(=O)C(O)CN(CCCN(CCCCO)CCCN(CC(O)C(=O)NCCCCCCCCCCCC)CC(O)C(=O)NCCCCCCCCCCCC)CC(O)C(=O)NCCCCCCCCCCCC (centres unmarked) [Compound L0282]
mice; [2]
  IVIS: 5.98 × 10^6
mice; [3]
  IVIS: 1.50 × 10^7
mice; [4]
  % of organ targeting: 2.75%
  IVIS: 6.77 × 10^5
mice; [5]
  % of organ targeting: 60.96%
  IVIS: 1.50 × 10^7
mice; [6]
  % of organ targeting: 36.29%
  IVIS: 8.93 × 10^6
mice; DMG-PEG2000:DSPC:Chol:Lipid 1.50:11.50:52.00:35.00, N/P 18, IV, body
  IVIS: 3.77 × 10^6
mice; [7]
  % of organ targeting: 7.18%
  IVIS: 6.44 × 10^5
mice; [8]
  % of organ targeting: 8.27%
  IVIS: 7.41 × 10^5
mice; [9]
  % of organ targeting: 84.55%
  IVIS: 7.58 × 10^6
mice; certain formulations, Table 2
  tissue-targeting specificity (lung vs spleen depending on molar percentage of compound): strong tissue-targeting specificity
[1]; [10]
  PDI: 0.15 ± 0.02
  Particle size: 85.38 ± 0.31 nm
[1]; [11]
  PDI: 0.18 ± 0.00
  Particle size: 100.32 ± 0.97 nm

## CCCCCCCCCCCCNC(=O)C(O)CN(CCCCN(C)CCCCN(CC(O)C(=O)NCCCCCCCCCCCC)CC(O)C(=O)NCCCCCCCCCCCC)CC(O)C(=O)NCCCCCCCCCCCC (centres unmarked) [Compound L0283]
mice; [2]
  IVIS: 2.02 × 10^6
mice; [3]
  IVIS: 1.94 × 10^8
mice; [4]
  % of organ targeting: 0.75%
  IVIS: 9.53 × 10^6
mice; [5]
  % of organ targeting: 98.03%
  IVIS: 1.24 × 10^9
mice; [6]
  % of organ targeting: 1.22%
  IVIS: 1.54 × 10^7
mice; DMG-PEG2000:DSPC:Chol:Lipid 2.63:12.10:53.68:31.59, N/P 30, IV, body
  IVIS: 4.87 × 10^7
mice; [12]
  % of organ targeting: 5.72%
  IVIS: 3.31 × 10^6
mice; [13]
  % of organ targeting: 25.56%
  IVIS: 1.48 × 10^7
mice; [14]
  % of organ targeting: 68.73%
  IVIS: 3.98 × 10^7
mice; certain formulations, Table 2
  in vivo delivery efficiency as compared to the benchmark compound SM102: superior in vivo delivery efficiency
  tissue-targeting specificity (lung vs spleen depending on molar percentage of compound): strong tissue-targeting specificity
[1]; [10]
  PDI: 0.12 ± 0.01
  Particle size: 99.68 ± 0.45 nm
[1]; [15]
  PDI: 0.12 ± 0.01
  Particle size: 95.92 ± 0.22 nm

## CC/C=C\CCOCOCCCCCCOC(=O)C(O)CN(C)CCN(C)CCN(C)CC(O)C(=O)OCCCCCCOCOCC/C=C\CC (centres unmarked) [Compound L0284]
mice; DMG-PEG2000:DSPC:Chol:Lipid 1.40:11.15:38.95:48.50, N/P 18, IM, whole body scan
  IVIS: 5.87 × 10^4
mice; DMG-PEG2000:DSPC:Chol:Lipid 1.40:11.15:38.95:48.50, N/P 18, IV, whole body scan
  IVIS: 2.03 × 10^5
[1]; [16]
  PDI: 0.12 ± 0.02
  Particle size: 150.97 ± 2.57 nm

## CCCCCCC(CCCCCC)C(=O)OCCCCCCOC(=O)C(O)CN(C)CCN(C)CCN(C)CC(O)C(=O)OCCCCCCOC(=O)C(CCCCCC)CCCCCC (centres unmarked) [Compound L0286]
mice; [2]
  IVIS: 3.05 × 10^3
mice; [3]
  IVIS: 4.41 × 10^6
[1]; [10]
  PDI: 0.16 ± 0.04
  Particle size: 136.97 ± 0.92 nm

## CCCCCCCC/C=C\CCCCCCCCNC(=O)C(O)CN(C)CCN(C)CCN(C)CC(O)C(=O)NCCCCCCCC/C=C\CCCCCCCC (centres unmarked) [Compound L0296]
mice; [17]
  IVIS: 2.80E+05
mice; [18]
  IVIS: 2.97E+05
[1]; [19]
  PDI: 0.16
  Particle size (nm): 81.09 nm

## CCCCCCC(CCCCCC)C(=O)OCCCCOC(=O)C(O)CN(CCN(C)CCN(CC(O)C(=O)OCCCCOC(=O)C(CCCCCC)CCCCCC)CC(O)C(=O)OCCCCOC(=O)C(CCCCCC)CCCCCC)CC(O)C(=O)OCCCCOC(=O)C(CCCCCC)CCCCCC (centres unmarked) [Compound L0297]
mice; [20]
  IVIS: 8.34E+07
mice; [21]
  IVIS: 1.64E+08
mice; [22]
  % of organ targeting: 35.19%
mice; [23]
  IVIS: 3.82E+07
mice; [24]
  % of organ targeting: 13.24%
mice; [25]
  IVIS: 1.44E+07
mice; [26]
  % of organ targeting: 51.57%
mice; [27]
  IVIS: 5.59E+07
[1]; [28]
  PDI: 0.13
  Particle size (nm): 119.00 nm

## CCCCCCCCC(CCCCCC)C(=O)OCCCCOC(=O)C(O)CN(CCN(C)CCN(CC(O)C(=O)OCCCCOC(=O)C(CCCCCC)CCCCCCCC)CC(O)C(=O)OCCCCOC(=O)C(CCCCCC)CCCCCCCC)CC(O)C(=O)OCCCCOC(=O)C(CCCCCC)CCCCCCCC (centres unmarked) [Compound L0298]
mice; [20]
  IVIS: 5.25E+07
mice; [21]
  IVIS: 1.30E+08
mice; [22]
  % of organ targeting: 39.52%
mice; [23]
  IVIS: 3.03E+07
mice; [24]
  % of organ targeting: 5.53%
mice; [25]
  IVIS: 4.23E+06
mice; [26]
  % of organ targeting: 54.95%
mice; [27]
  IVIS: 4.21E+07
[1]; [28]
  PDI: 0.11
  Particle size (nm): 91.43 nm

## CCCCCCCC/C=C\CCCCCCCCNC(=O)C(O)CN(CCN(C)CCN(CC(O)C(=O)NCCCCCCCC/C=C\CCCCCCCC)CC(O)C(=O)NCCCCCCCC/C=C\CCCCCCCC)CC(O)C(=O)NCCCCCCCC/C=C\CCCCCCCC (centres unmarked) [Compound L0299]
mice; [20]
  IVIS: 1.92E+06
mice; [21]
  IVIS: 1.55E+07
mice; [22]
  % of organ targeting: 7.28%
mice; [23]
  IVIS: 7.84E+05
mice; [24]
  % of organ targeting: 41.60%
mice; [25]
  IVIS: 4.48E+06
mice; [26]
  % of organ targeting: 51.12%
mice; [27]
  IVIS: 5.50E+06
[1]; [28]
  PDI: 0.16
  Particle size (nm): 91.76 nm

## CCCCCCCCCCCCNC(=O)C(O)CN(CCOCCOCCN(CC(O)C(=O)NCCCCCCCCCCCC)CC(O)C(=O)NCCCCCCCCCCCC)CC(O)C(=O)NCCCCCCCCCCCC (centres unmarked) [Compound L0305]
mice; [17]
  IVIS: 4.39E+04
mice; IV, body, DMG-PEG2000:DSPC:Chol:compound 1.40:11.15:38.95:48.50, N/P 20, Fluc-mRNA
  IVIS: 8.12E+06
mice; IV, liver, DMG-PEG2000:DSPC:Chol:compound 1.40:11.15:38.95:48.50, N/P 20
  % of organ targeting: 35.21%
mice; IV, liver, DMG-PEG2000:DSPC:Chol:compound 1.40:11.15:38.95:48.50, N/P 20, Fluc-mRNA
  IVIS: 2.14E+06
mice; IV, lung, DMG-PEG2000:DSPC:Chol:compound 1.40:11.15:38.95:48.50, N/P 20
  % of organ targeting: 1.65%
mice; IV, lung, DMG-PEG2000:DSPC:Chol:compound 1.40:11.15:38.95:48.50, N/P 20, Fluc-mRNA
  IVIS: 1.00E+05
mice; IV, spleen, DMG-PEG2000:DSPC:Chol:compound 1.40:11.15:38.95:48.50, N/P 20
  % of organ targeting: 63.14%
mice; IV, spleen, DMG-PEG2000:DSPC:Chol:compound 1.40:11.15:38.95:48.50, N/P 20, Fluc-mRNA
  IVIS: 3.84E+06
[1]; [19]
  PDI: 0.18
  Particle size (nm): 109.93 nm

## CCCCCCCCCCCCNC(=O)C(O)CN(CCOCCN(CC(O)C(=O)NCCCCCCCCCCCC)CC(O)C(=O)NCCCCCCCCCCCC)CC(O)C(=O)NCCCCCCCCCCCC (centres unmarked) [Compound L0306]
mice; [17]
  IVIS: 1.82E+06
mice; [18]
  IVIS: 7.90E+06
[1]; [19]
  PDI: 0.14
  Particle size (nm): 84.96 nm

## CCCCCCCCCCCCNC(=O)C(O)CN(CCCCCN(CC(O)C(=O)NCCCCCCCCCCCC)CC(O)C(=O)NCCCCCCCCCCCC)CC(O)C(=O)NCCCCCCCCCCCC (centres unmarked) [Compound L0307]
mice; [17]
  IVIS: 1.43E+05
mice; [18]
  IVIS: 4.29E+05
[1]; [19]
  PDI: 0.25
  Particle size (nm): 178.57 nm
